Laboratory results reported in ChEMBL document CHEMBL4619823, “Allosteric Modulation of Protein Arginine Methyltransferase 5 (PRMT5)” (ACS Med Chem Lett, 2020).

What was measured:
PRMT5/MEP50 complex = PRMT5/MEP50 complex (Homo sapiens, UniProt O14744); experiment: Inhibition of recombinant Avi-tagged PRMT5 (2 to 637)/ His-tagged MEP50 (2 to 342) (unknown origin) expressed in baculovirus infected Sf21 cells using biotinylated H4R3 (Me1) peptide as substrate in presence of SAM preincubated for 60 mins followed by substrate addition after 150 mins by biochemical methylation assay
[1] = target: Protein arginine N-methyltransferase 5 (Homo sapiens, UniProt O14744); experiment: Inhibition of PRMT5 in human MCF7 cells assessed as reduction in symmetrically dimethylated nuclear protein level incubated for 3 days by Alexafluor-488 conjugate anti-rabbit antibody/DAPI staining based IN cell analyzer method
[2] = target: PRMT5/MEP50 complex (Homo sapiens) (UniProt O14744+Q9BQA1); experiment: Binding affinity to human biotinylated PRMT5/MEP50 assessed as association rate constant by SPR analysis; format: protein-complex assay

Chain of PRMT5/MEP50 complex (O14744 whole entry): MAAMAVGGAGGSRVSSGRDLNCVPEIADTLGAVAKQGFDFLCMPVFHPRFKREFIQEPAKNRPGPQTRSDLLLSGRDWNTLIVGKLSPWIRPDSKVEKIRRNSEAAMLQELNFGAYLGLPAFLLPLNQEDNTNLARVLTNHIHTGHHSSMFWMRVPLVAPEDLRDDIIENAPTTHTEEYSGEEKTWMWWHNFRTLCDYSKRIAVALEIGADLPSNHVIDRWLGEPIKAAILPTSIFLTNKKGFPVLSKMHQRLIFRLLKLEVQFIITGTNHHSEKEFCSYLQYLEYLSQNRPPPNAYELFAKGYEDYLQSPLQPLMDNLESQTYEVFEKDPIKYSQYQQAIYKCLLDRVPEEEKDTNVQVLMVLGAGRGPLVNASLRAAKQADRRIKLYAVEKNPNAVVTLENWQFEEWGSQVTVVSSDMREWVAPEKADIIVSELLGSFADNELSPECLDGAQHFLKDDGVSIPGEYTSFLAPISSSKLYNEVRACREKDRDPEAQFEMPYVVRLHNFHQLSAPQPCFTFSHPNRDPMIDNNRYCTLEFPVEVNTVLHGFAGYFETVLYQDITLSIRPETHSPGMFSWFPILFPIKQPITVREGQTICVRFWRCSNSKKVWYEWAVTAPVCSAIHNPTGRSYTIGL
Chain of PRMT5/MEP50 complex (Q9BQA1 whole entry, further chain): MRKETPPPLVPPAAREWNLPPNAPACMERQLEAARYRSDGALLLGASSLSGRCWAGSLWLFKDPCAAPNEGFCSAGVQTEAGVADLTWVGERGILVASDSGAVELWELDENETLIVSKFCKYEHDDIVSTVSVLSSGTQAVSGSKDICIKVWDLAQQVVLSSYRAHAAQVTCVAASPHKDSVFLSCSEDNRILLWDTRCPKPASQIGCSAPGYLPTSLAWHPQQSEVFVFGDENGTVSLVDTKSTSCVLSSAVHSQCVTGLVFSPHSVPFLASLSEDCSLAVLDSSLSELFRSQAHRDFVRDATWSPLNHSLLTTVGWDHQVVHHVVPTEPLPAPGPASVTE
Chain of Protein arginine N-methyltransferase 5 (O14744 whole entry): as the sequence (O14744 whole entry) above

Row | Compound | EC50 (PRMT5/MEP50 complex) [nM] | EC50 [1] [nM] | Ka [2] [M⁻¹ s⁻¹]
1 | COc1ccc(C2(C34CC5CC(O)(CC(F)(C5)C3)C4)N=C(N)N(C)C2=O)cc1 (stereo not drawn) | 620 | – | –
2 | COc1ccc([C@@]2(C34CC5CC(CC(O)(C5)C3)C4)N=C(N)N(C)C2=O)cc1 | 220 | – | –
3 | CN1C(=O)[C@](c2ccccc2)(C23CC4CC(CC(C4)C2)C3)N=C1N | 12 | – | –
4 | CN1C(=O)[C@](c2ccc3ccccc3c2)(C23CC4CC(CC(C4)C2)C3)N=C1N | 90 | – | –
5 | CC1CCN2C(=O)[C@](c3ccccc3)(C34CC5CC(CC(C5)C3)C4)N=C2N1 (stereo partly drawn) | 66 | – | –
6 | COc1cccc([C@@]2(C34CC5CC(CC(C5)C3)C4)N=C(N)N(C)C2=O)c1 | 56 | – | –
7 | COc1ccc([C@]2(C34CC5CC(CC(C5)C3)C4)N=C(N)N(C)C2=O)cc1 | 3100 | – | –
8 | COc1ccc([C@@]2(C34CC5CC(CC(C5)C3)C4)N=C(N)N(C)C2=O)cc1 | 16 | 4600 | 1000

Further compounds by falling EC50 (PRMT5/MEP50 complex), results first:

Row | EC50 (PRMT5/MEP50 complex) [nM] | Compound | EC50 [1] [nM] | Ka [2] [M⁻¹ s⁻¹]
9 | 240 | COc1ccc([C@@]2(C34CCC(CC3)CC4)N=C(N)N(C)C2=O)cc1 | – | –
10 | 68 | CCC1CCN2C(=O)[C@](c3ccccc3)(C34CC5CC(CC(C5)C3)C4)N=C2N1 (stereo partly drawn) | – | –
11 | 50 | CN1C(=O)[C@@](CCC2CCCCC2)(c2ccccc2)N=C1N | – | –
